In PubChem BioAssay (NCI):
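96-well plates; 48 h exposure; 5 concentrations. Endpoints by linear interpolation between flanking doses. Not reached: highest tested concentration assigned. At the TGI there is no net growth.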

Tests used:
Assay in all cases: DTP human tumour cell line panel, 48 h
HCT-15 colon = test system: HCT-15 colon
HL-60(TB) leukemia = test system: HL-60(TB) leukemia
MCF7 breast = test system: MCF7 breast
MDA-MB-435 = test system: MDA-MB-435
NCI-H226 lung = test system: NCI-H226 lung
OVCAR-3 ovarian = test system: OVCAR-3 ovarian
RPMI-8226 leukemia = test system: RPMI-8226 leukemia
RXF 393 renal = test system: RXF 393 renal
SF-539 CNS = test system: SF-539 CNS
SK-MEL-2 melanoma = test system: SK-MEL-2 melanoma

Row | SMILES | TGI (HCT-15 colon) [µM] | TGI (HL-60(TB) leukemia) [µM] | TGI (MCF7 breast) [µM] | TGI (MDA-MB-435) [µM] | TGI (NCI-H226 lung) [µM] | TGI (OVCAR-3 ovarian) [µM] | TGI (RPMI-8226 leukemia) [µM] | TGI (RXF 393 renal) [µM] | TGI (SF-539 CNS) [µM] | TGI (SK-MEL-2 melanoma) [µM]
1 | C#CC1(O)CCCCCCCCC2(CCCCCCCC1)OCCO2 | 39.1 | 40.9 | 36.3 | 33.5 | 34 | 29.3 | 22 | 24.5 | 31.8 | 27.9
2 | CCOC(=O)C(Cl)(NC(=O)OCc1ccccc1)C(F)(F)F (stereo not given) | > 100 | > 100 | > 100 | > 100 | > 100 | > 100 | > 100 | > 100 | > 100 | > 100
3 | N#Cc1c(O)c(/C=N/c2ncccn2)c(=O)n2c1[nH]c1ccccc12 | > 100 | > 100 | > 100 | > 100 | > 100 | > 100 | > 100 | > 100 | > 100 | > 100
4 | ON=C(CC(O)(C(F)(F)Cl)C(F)(F)Cl)CC(O)(C(F)(F)Cl)C(F)(F)Cl | > 10 | > 10 | > 10 | > 10 | > 10 | > 10 | > 10 | 7.79 | > 10 | 7.84
5 | O=C(N/N=C(/COc1ccccc1)N=Cc1cccnc1)c1ccncc1 | > 100 | > 100 | > 100 | > 100 | > 100 | > 100 | > 100 | > 100 | > 100 | > 100
6 | COC(=O)/C=C1/OC(c2ccc(OC)cc2)=C(Cl)C1=O | 33.9 | 12.2 | 25 | 30.4 | 51.1 | 26.3 | 13.6 | 31.7 | 41 | 33.6
7 | O=C(OCCNC(=O)N1CC1)OCCNC(=O)N1CC1 | > 10 | > 10 | > 10 | > 10 | > 10 | > 10 | > 10 | > 10 | > 10 | > 10
8 | CCOC(=O)NN(C(=O)OCC)c1c(C)cc(C)cc1C | > 100 | > 100 | > 100 | > 100 | > 100 | > 100 | > 100 | > 100 | > 100 | > 100
9 | CC(C)N(C(C)C)S(=O)(=O)C[C@]12CC[C@H](CC13OCC(CS(=O)(=O)c1ccccc1)O3)C2(C)C (stereo not given in full) | > 100 | 61.2 | > 100 | > 100 | > 100 | > 70.8 | > 100 | > 100 | > 100 | > 100
10 | CC1(C)[C@@H]2C[C@H]1c1cnc(-c3ccccn3)cc1C2CCCCC[C@@H]1c2cc(-c3ccccn3)ncc2[C@@H]2C[C@H]1C2(C)C (stereo not given in full) | > 100 | 5.76 | > 100 | > 100 | 7.53 | > 100 | 19.6 | 45.5 | 0.456 | > 88.6
11 | COC(=O)C12OC3CO[Si](C(C)C)(C(C)C)O[Si](C(C)C)(C(C)C)OC3C1Oc1nc(=O)ccn12 (stereo not given) | 30.1 | 72.9 | 29.4 | 31.3 | 30.4 | 29.3 | 30.8 | 30.6 | 30.2 | 31.6
12 | ClCCCCCc1c2nc(c(CCCCCCl)c3ccc([nH]3)c(CCCCCCl)c3ccc([nH]3)c(CCCCCCl)c3nc1C=C3)C=C2 | > 100 | > 100 | > 100 | > 100 | > 100 | > 100 | > 100 | > 100 | > 100 | > 100
13 | CN1CC2CN(Cc3ccccc3)CCN2c2cccnc21 (stereo not given) | > 100 | > 100 | > 100 | > 100 | > 100 | > 100 | > 100 | > 100 | > 100 | > 100
14 | CC1C(C#N)(C#N)C(C#N)=C(N)C1(Cl)[N+](=O)[O-] (stereo not given) | 13.1 | 5.16 | 47.4 | 31.6 | 31.6 | 22 | 39.8 | 17.4 | 25.2 | 58
15 | CN(C)Cc1cc(N=Nc2ccc(Cl)cc2)cc(CN(C)C)c1O | 21 | 4.94 | 21.3 | 24.6 | 17.7 | 6.78 | 37 | 25.1 | 23.2 | 27.8
16 | CN(C)c1ccc(C=C2C(=O)NC(=S)NC2=O)c2ccccc12 | > 100 | > 100 | > 100 | > 100 | > 100 | > 100 | > 100 | 76.4 | > 100 | > 100
17 | CCN1CN(c2ccccc2)C2(CCN(CC(CC3OCCO3)c3ccc(F)cc3)CC2)C1=O (stereo not given) | > 67.5 | 49.3 | 7.22 | 38.2 | 65 | 50.7 | 60.2 | 44.8 | 25.5 | 46.8
